Holding throughout (assay): Bliss excess, mean over the matrix (fraction); higher = more synergy
For test [1], the system named is 647-V (Bladder Carcinoma). The procedure, abridged:
(§1)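 Cell lines in DMEM/F12 or RPMI with 10% FBS were plated in 1536-well plates, held 24 hours at 37°C, 5% CO2, then given two-drug dose matrices for 72 hours (DMSO typically 0.2%). Viability was read by CellTiter-Glo 2.0 luminescence and scaled as inhibition from 0 (vehicle wells) to 1 (blank wells). Combination Emax is the second-highest inhibition in the matrix; Bliss excess is observed combination effect minus expected EA + EB − EA·EB, EA and EB being single-agent effects.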

Another test deals with A172 (Glioblastoma). An outline of the steps:
as §1

The next test has as its system CS1 (Chondrosarcoma). An outline of the steps:
as §1

The next test has as its system D-392MG (Glioblastoma). The procedure, abridged:
as §1

The subject of test [2] is DOK (Oral Cavity Carcinoma). The procedure, abridged: as §1
The subject of test [3] is ETK-1 (Biliary Tract Carcinoma). An outline of the steps:
as §1

Test [4] has as its system GDM-1 (Acute Myeloid Leukemia). The procedure, abridged: as §1
The subject of test [5] is HCC-827 (Lung Adenocarcinoma). The procedure, abridged: as §1
For another test, the system named is HCC38 (Breast Carcinoma). The procedure, abridged:
as §1

Test [6] relates to HOP-92 (Non-Small Cell Lung Carcinoma). The procedure, abridged: as §1
Test [7] relates to JHH-6 (Hepatocellular Carcinoma). An outline of the steps: as §1
The test system of test [8] is MEG-01 (Chronic Myelogenous Leukemia). The procedure, abridged:
as §1

Test [9] deals with NCI-H1688 (Small Cell Lung Carcinoma). An outline of the steps:
as §1

The test system of test [10] is PA-TU-8902 (Pancreatic Carcinoma). The procedure, abridged:
as §1

The test system of test [11] is RCC10RGB (Kidney Carcinoma). An outline of the steps:
as §1

The subject of test [12] is SK-LMS-1 (Other Solid Carcinomas). The procedure, abridged:
as §1

Another test relates to SK-MEL-1 (Melanoma). An outline of the steps:
as §1

For test [13], the system named is SLVL (B-Cell Non-Hodgkin's Lymphoma). An outline of the steps: as §1
Another test has as its system Saos-2 (Osteosarcoma). An outline of the steps:
as §1

The test system of test [14] is U-118-MG (Low Grade Glioma). An outline of the steps:
as §1

Molecules are shown by their SMILES.

For `Cn1cnc2c(F)c(Nc3ccc(Br)cc3Cl)c(C(=O)NOCCO)cc21` [Selumetinib] + C=CCn1c(=O)c2cnc(Nc3ccc(N4CCN(C)CC4)cc3)nc2n1-c1cccc(C(C)(C)O)n1 [AZD1775] (first compound max 10 µM, partner max 1 µM), the Bliss excess in test [1] is -0.0359; in the test with A172 (Glioblastoma), -0.126; in the test with CS1 (Chondrosarcoma), -0.0195; in the test with D-392MG (Glioblastoma), -0.0367; in test [2], 0.0043; in test [3], -0.0128. In addition, the Bliss excess is -0.0254 in test [4]; -0.026 in test [5]; -0.0768 in the test on HCC38 (Breast Carcinoma); -0.056 in [6]; -0.0963 in test [7]; 0.0437 in test [8]. In addition, the Bliss excess is -0.115 in test [9]; 0.0655 in test [10]; -0.0703 in test [11]; 0.0059 in test [12]; 0.0121 in the test with SK-MEL-1 (Melanoma); -0.0275 in test [13]. Further, the results for the Bliss excess (in the test with Saos-2 (Osteosarcoma); in test [14]) were -0.0072 and -0.061, respectively.

On to `Cn1cnc2c(F)c(Nc3ccc(Br)cc3Cl)c(C(=O)NOCCO)cc21` [Selumetinib] + CC(C)n1c(=O)n(C)c2cnc3cc(F)c(-c4ccc(OCCCN5CCCCC5)nc4)cc3c21 [AZD1390] (first compound max 10 µM, 7x7, partner max 0.3 µM), for which the Bliss excess in test [1] is -0.0481; in the test with A172 (Glioblastoma), -0.0389; with CS1 (Chondrosarcoma) it was -0.0172; with D-392MG (Glioblastoma) it was -0.02; in test [2] it was 0.021; in [3], -0.0432. In addition, the Bliss excess in [4] is -0.0523; in [5], -0.0306; in the test with HCC38 (Breast Carcinoma) it was -0.0306; in test [6], -0.0112; in [7], -0.0769; in test [8], 0.0034. In addition, the Bliss excess in test [9] is -0.016; in test [10] it was 0.0043; in test [11], -0.0004; in test [12], -0.0429; with SK-MEL-1 (Melanoma) it was -0.0378; in test [13] it was -0.0557. Moreover, the Bliss excess is -0.0577 with Saos-2 (Osteosarcoma) and -0.0587 in [14].

`Cn1cnc2c(F)c(Nc3ccc(Br)cc3Cl)c(C(=O)NOCCO)cc21` [Selumetinib] + CCN(CCO)CCCOc1ccc2c(Nc3cc(CC(=O)Nc4cccc(F)c4)[nH]n3)ncnc2c1 [AZD2811] (first compound max 10 µM, 7x7, partner max 1 µM): the Bliss excess in test [1] is -0.0038; in the test on A172 (Glioblastoma), -0.0731; with CS1 (Chondrosarcoma) it was -0.0043; with D-392MG (Glioblastoma), -0.0304; in test [2], -0.0864; in test [3], -0.0222. Besides, the Bliss excess in test [4] is -0.0345; in test [5] it was -0.0711; in the test with HCC38 (Breast Carcinoma) it was -0.0748; in test [6], -0.0193; in test [7], -0.0305; in test [8], -0.0001. In addition, the Bliss excess was -0.0377 in [9]; 0.0087 in test [10]; -0.0658 in test [11]; -0.0047 in test [12]; 0.0031 with SK-MEL-1 (Melanoma); -0.0465 in [13]. Also, the Bliss excess in the test on Saos-2 (Osteosarcoma) was 0.0334; in test [14], -0.027.

`Cn1cnc2c(F)c(Nc3ccc(Br)cc3Cl)c(C(=O)NOCCO)cc21` [Selumetinib] + C[C@@H]1COCCN1C2=NC(=NC(=C2)C3(CC3)[S@](=N)(=O)C)C4=C5C=CNC5=NC=C4 [AZD6738] (first compound max 10 µM, 7x7, partner max 10 µM): the Bliss excess is 0.0218 in test [1]; -0.0564 with A172 (Glioblastoma); -0.0706 with CS1 (Chondrosarcoma); 0.0013 in the test with D-392MG (Glioblastoma); 0.0628 in test [2]; -0.036 in test [3]. Besides, the Bliss excess is 0.0409 in [4]; -0.0172 in test [5]; -0.0706 in the test with HCC38 (Breast Carcinoma); -0.0029 in test [6]; -0.0064 in [7]; 0.0135 in test [8]. The Bliss excess is -0.0217 in test [9]; 0.0428 in test [10]; 0.119 in [11]; 0.0453 in test [12]; -0.0312 with SK-MEL-1 (Melanoma); -0.107 in test [13]. The Bliss excess in the test with Saos-2 (Osteosarcoma) was -0.0349; in test [14], 0.0263.

For `CC(=O)Nc1cccc(-n2c(=O)n(C3CC3)c(=O)c3c(Nc4ccc(I)cc4F)n(C)c(=O)c(C)c32)c1` [Trametinib] + Cc1nc(-c2cn3c(n2)-c2ccc(-c4cnn(C(C)(C)C(N)=O)c4)cc2OCC3)n(C(C)C)n1 [Taselisib] (first compound max 1 µM, 7x7, partner max 10 µM), the Bliss excess turned out to be 0.106 in test [1]; 0.0645 in the test on A172 (Glioblastoma); 0.0483 in the test with CS1 (Chondrosarcoma); 0.137 in the test on D-392MG (Glioblastoma); 0.0767 in [2]; 0.134 in test [3]. The Bliss excess came out at 0.0571 in [4]; 0.0731 in test [5]; 0.0219 with HCC38 (Breast Carcinoma); 0.14 in test [6]; 0.152 in test [7]; 0.0324 in test [8]. The Bliss excess was 0.127 in test [9]; 0.108 in [10]; -0.0186 in [11]; 0.0854 in test [12]; 0.0238 in the test on SK-MEL-1 (Melanoma); 0.134 in test [13]. Further, the Bliss excess with Saos-2 (Osteosarcoma) was 0.0402; in [14] it was -0.0083.

As for `CC1(C)CCC(CN2CCN(c3ccc(C(=O)NS(=O)(=O)c4ccc(NCC5CCOCC5)c([N+](=O)[O-])c4)c(Oc4cnc5[nH]ccc5c4)c3)CC2)=C(c2ccc(Cl)cc2)C1` [Venetoclax] + C1CN(CCC1(C(=O)N[C@@H](CCO)C2=CC=C(C=C2)Cl)N)C3=NC=NC4=C3C=CN4 [Capivasertib] (first compound max 1 µM, 7x7, partner max 3 µM), the Bliss excess is -0.0247 in test [1]; -0.0461 in the test on A172 (Glioblastoma); -0.072 in the test with CS1 (Chondrosarcoma); -0.0437 in the test on D-392MG (Glioblastoma); -0.0532 in [2]; -0.0619 in [3]. The Bliss excess in [4] was -0.0325; in test [5], -0.0278; with HCC38 (Breast Carcinoma), -0.0177; in test [6], -0.0245; in [7], -0.0791; in test [8] it was -0.0349. The Bliss excess is -0.0065 in test [9]; -0.0752 in [10]; -0.0402 in [11]; -0.0485 in test [12]; -0.0561 in the test on SK-MEL-1 (Melanoma); -0.0284 in [13]. The Bliss excess was -0.029 in the test with Saos-2 (Osteosarcoma) and -0.0494 in [14].

For `CC1(C)CCC(CN2CCN(c3ccc(C(=O)NS(=O)(=O)c4ccc(NCC5CCOCC5)c([N+](=O)[O-])c4)c(Oc4cnc5[nH]ccc5c4)c3)CC2)=C(c2ccc(Cl)cc2)C1` [Venetoclax] + C=CCn1c(=O)c2cnc(Nc3ccc(N4CCN(C)CC4)cc3)nc2n1-c1cccc(C(C)(C)O)n1 [AZD1775] (first compound max 1 µM, partner max 1 µM), the Bliss excess was -0.0274 in [1]; -0.0833 with A172 (Glioblastoma); 0.0589 with CS1 (Chondrosarcoma); 0.0593 with D-392MG (Glioblastoma); -0.0582 in test [2]; -0.0661 in [3]. Also, the Bliss excess in test [4] was 0.132; in test [5], -0.0764; in the test with HCC38 (Breast Carcinoma), 0.0136; in test [6] it was 0.0046; in test [7] it was -0.0348; in [8], 0.0146. Besides, the Bliss excess is -0.0067 in [9]; -0.0622 in test [10]; -0.0374 in test [11]; -0.0306 in test [12]; -0.0539 with SK-MEL-1 (Melanoma); 0.0249 in test [13]. Moreover, the Bliss excess is 0.0339 with Saos-2 (Osteosarcoma) and -0.0704 in [14].

Values taken from the supplement of paper PMC11061612.
